These results are taken from ChEMBL document CHEMBL3880382, “TRH-like peptide derivatives as inhibitors of the TRH-degrading ectoenzyme” (2010).

Test [1] addresses T1, Thyrotropin releasing hormone degrading enzyme (Sus scrofa) (UniProt A0A287AP33). Briefly: Substrate activity at pig brain TRH-DE assessed as rate of hydrolysis at 1 mM incubated for 18 hrs by HPLC analysis.
Test [2] deals with T1, Thyrotropin releasing hormone degrading enzyme (Sus scrofa). Briefly: Inhibition of pig brain TRH-DE at 1 mM using Glp-His-ProAMC as substrate by DPP-4-based continuous fluorometric method.
The target is the same in test [3]. Briefly: Substrate activity at pig brain TRH-DE assessed as retention time at 1 mM incubated for 18 hrs by HPLC analysis.
Test [4] shares this target. Briefly: Substrate activity at pig brain TRH-DE assessed as Vmax to Km ratio.
Test [5] addresses Thyrotropin releasing hormone degrading enzyme (Sus scrofa, UniProt A0A287AP33). The experiment in a line: Inhibition of pig brain TRH-DE using Glp-His-ProAMC as substrate by DPP-4-based continuous fluorometric method.
Test [6] deals with Rattus norvegicus. Briefly: In vivo inhibition of TRH-DE in cannulated Wistar rat assessed as TRH-mediated increase in locomotion at 10 mg/kg, ip measured every 5 mins for 30 secs during 40 mins of observation period. Type of test: functional, organism-based.
Test [7] has as its target T2, Thyrotropin-releasing hormone receptor (Rattus norvegicus, UniProt Q01717).
T2 sequence (Q01717 whole entry): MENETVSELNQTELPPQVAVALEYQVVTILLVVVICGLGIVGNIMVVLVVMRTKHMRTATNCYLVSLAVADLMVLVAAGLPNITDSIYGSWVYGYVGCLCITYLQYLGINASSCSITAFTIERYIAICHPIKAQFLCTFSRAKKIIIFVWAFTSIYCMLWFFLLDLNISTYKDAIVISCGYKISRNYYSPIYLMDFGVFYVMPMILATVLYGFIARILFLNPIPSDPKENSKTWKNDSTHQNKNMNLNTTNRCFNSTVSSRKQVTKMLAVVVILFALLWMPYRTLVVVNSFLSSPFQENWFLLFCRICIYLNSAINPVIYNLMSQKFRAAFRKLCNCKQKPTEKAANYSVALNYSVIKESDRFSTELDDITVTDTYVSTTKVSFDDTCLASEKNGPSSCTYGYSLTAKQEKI
Briefly: Displacement of [3H]-3MeHis-TRH from TRH receptor in Sprague-Dawley rat cortical membranes.

The target of test [8] is T1, Thyrotropin releasing hormone degrading enzyme (Sus scrofa). Briefly: Reversible inhibition of pig brain TRH-DE using Glp-His-ProAMC as substrate at 160 uM preincubated for 75 mins by DPP-4-based continuous fluorometric method.
For test [9] the target is unchanged. Briefly: Competitive inhibition of pig brain TRH-DE at 12.5 to 50 uM using Glp-His-ProAMC as substrate by Lineweaver-Burk analysis.
For test [10], the system named is Rattus norvegicus. The experiment in a line: In vivo inhibition of TRH-DE in cannulated Wistar rat assessed as increase in TRH-mediated locomotion at 5 ug in 1 ul, icv after 30 mins. Format: functional, organism-based.

Structures are written as SMILES. pKi: −log10 of the molar value. Calls of active or inactive are those of the source. The calls are words filed in the database; no cut-off is given here. Non-standard residues stand in square brackets, D forms with d. Residues, ends and D or L forms follow the SMILES beside them. *: point of attachment. hPhe = N[C@@H](CCc1ccccc1)C(=O)O; pGlu = O=C1CC[C@@H](C(=O)O)N1; NHBn = c1ccc(CN*)cc1

T1 sequence (A0A287AP33 as listed by the source): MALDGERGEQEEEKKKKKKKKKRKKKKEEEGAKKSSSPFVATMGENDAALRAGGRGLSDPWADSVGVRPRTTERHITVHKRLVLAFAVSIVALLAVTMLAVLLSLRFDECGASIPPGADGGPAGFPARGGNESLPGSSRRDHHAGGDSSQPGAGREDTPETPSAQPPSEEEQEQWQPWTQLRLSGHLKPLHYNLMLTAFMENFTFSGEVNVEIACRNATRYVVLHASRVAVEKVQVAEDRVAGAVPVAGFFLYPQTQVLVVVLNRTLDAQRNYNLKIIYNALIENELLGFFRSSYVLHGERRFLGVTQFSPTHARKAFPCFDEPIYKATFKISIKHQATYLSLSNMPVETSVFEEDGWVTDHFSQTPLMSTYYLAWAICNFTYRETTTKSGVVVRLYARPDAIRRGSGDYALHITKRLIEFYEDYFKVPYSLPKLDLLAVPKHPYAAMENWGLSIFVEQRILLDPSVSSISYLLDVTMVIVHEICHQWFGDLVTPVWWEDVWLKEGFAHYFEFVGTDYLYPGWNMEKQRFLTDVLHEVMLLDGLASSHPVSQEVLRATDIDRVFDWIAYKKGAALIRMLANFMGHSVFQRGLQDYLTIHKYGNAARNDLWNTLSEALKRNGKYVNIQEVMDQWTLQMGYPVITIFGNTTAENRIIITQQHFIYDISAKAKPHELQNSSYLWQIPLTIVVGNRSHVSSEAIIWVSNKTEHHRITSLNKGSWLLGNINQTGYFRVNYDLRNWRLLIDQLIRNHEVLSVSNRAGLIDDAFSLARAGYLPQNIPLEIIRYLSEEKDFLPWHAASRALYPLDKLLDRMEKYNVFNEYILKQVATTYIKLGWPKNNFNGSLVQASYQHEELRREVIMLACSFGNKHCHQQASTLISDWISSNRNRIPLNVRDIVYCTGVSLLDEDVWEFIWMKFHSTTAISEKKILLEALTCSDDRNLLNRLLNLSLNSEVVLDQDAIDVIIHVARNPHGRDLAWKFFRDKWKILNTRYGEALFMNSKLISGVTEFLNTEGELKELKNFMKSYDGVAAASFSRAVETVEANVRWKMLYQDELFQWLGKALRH
Sequence of Thyrotropin releasing hormone degrading enzyme (A0A287AP33 whole entry): as the sequence (A0A287AP33 as listed by the source) above

Take `CSCC[C@H](NC(=O)[C@@H]1CCC(=O)N1)C(=O)N1CCC[C@H]1C(N)=O` ([pGlu]-Met-Pro-NH2): the Activity in [1] worked out at 0.21 U/mg.

Regarding `NC(=O)[C@@H]1CCCN1C(=O)[C@H](CCC(=O)O)NC(=O)[C@@H]1CCC(=O)N1` ([pGlu]-Glu-Pro-NH2), the inhibition in test [2] turned out to be 17%.

`N=C(N)NCCC[C@H](NC(=O)[C@@H]1CCC(=O)N1)C(=O)N1CCC[C@H]1C(N)=O` ([pGlu]-Arg-Pro-NH2): in test [1], the Activity came to 0.41 U/mg.

As for `NC(=O)[C@@H]1CCCN1C(=O)[C@H](Cc1c[nH]c2ccccc12)NC(=O)[C@@H]1CCC(=O)N1` ([pGlu]-Trp-Pro-NH2), in test [2], the inhibition worked out at 71%.

In the case of `COc1ccccc1NC(=O)[C@@H]1CCCN1C(=O)[C@H](CC(N)=O)NC(=O)[C@@H]1CCC(=O)N1`, the Retention time in test [3] stood at 15.4 min.

With `CC(C)[C@H](NC(=O)[C@@H]1CCC(=O)N1)C(=O)N1CCC[C@H]1C(N)=O` ([pGlu]-Val-Pro-NH2), in [1], the Activity is 0.05 U/mg.

For the molecule `NC(=O)C[C@@H](NC(=O)[C@@H]1CCC(=O)N1)C(=O)N1CCC[C@H]1C(N)=O` ([pGlu]-[dN]-Pro-NH2), the inhibition in [2] amounted to 2%.

For the molecule `NC(=O)[C@@H]1CCCN1C(=O)[C@H](Cc1c[nH]cn1)NC(=O)[C@@H]1CCC(=O)N1`, the Vmax/Km in test [4] stood at 0.08 U/mg/µM. Besides, the Activity in [1] was 2.54 U/mg.

Consider `NC(=O)[C@@H]1CCCN1C(=O)[C@H](CCc1ccccc1)NC(=O)[C@@H]1CCC(=O)N1` ([pGlu]-[hPhe]-Pro-NH2), for which the Activity in [1] came to 0.05 U/mg.

On to `NC(=O)[C@@H]1CCCN1C(=O)[C@H](CO)NC(=O)[C@@H]1CCC(=O)N1` ([pGlu]-Ser-Pro-NH2), for which the Activity in [1] came out at 0.05 U/mg.

As to `NC(=O)C[C@H](NC(=O)[C@@H]1CCC(=O)N1)C(=O)N1CCC[C@H]1C(=O)Nc1ccccc1CO`, in [5], the pKi is 4.69. Moreover, the Retention time in test [3] came out at 11.9 min.

Regarding `NC(=O)[C@@H]1CCCN1C(=O)[C@H](Cc1ccccc1)NC(=O)[C@@H]1CCC(=O)N1` ([pGlu]-Phe-Pro-NH2), the Vmax/Km in test [4] turned out to be 0.03 U/mg/µM. The Activity in test [1] worked out at 1.56 U/mg.

With `C[C@H](NC(=O)[C@@H]1CCC(=O)N1)C(=O)N1CCC[C@H]1C(N)=O` ([pGlu]-Ala-Pro-NH2), in test [1], the Activity was 0.02 U/mg.

With `NC(=O)[C@@H]1CCCN1C(=O)[C@H](CC(=O)O)NC(=O)[C@@H]1CCC(=O)N1` ([pGlu]-Asp-Pro-NH2), the inhibition in test [2] was found to be 1%.

In the case of `NC(=O)C[C@H](NC(=O)[C@@H]1CCC(=O)N1)C(=O)N1CCC[C@H]1C(N)=O` ([pGlu]-Asn-Pro-NH2), the inhibition entry (in the test with Rattus norvegicus [6]; in test [8]; in [9]; in the test on Rattus norvegicus [10]) was “Active” each time. The molecule further gave a pKi in test [7] of 5.15. The molecule further registered an inhibition in test [2] of 97%.

`CC[C@H](C)[C@H](NC(=O)[C@@H]1CCC(=O)N1)C(=O)N1CCC[C@H]1C(N)=O` ([pGlu]-Ile-Pro-NH2): the Activity in test [1] was determined as 0.06 U/mg.

Turning to `NC(=O)C[C@H](NC(=O)[C@@H]1CCC(=O)N1)C(=O)N1CCC[C@H]1C(=O)NCc1ccccc1` ([pGlu]-Asn-Pro-NHBn), the Retention time in [3] was found to be 14.3 min.
